# According to patent publication US9187464B2, “TRPV4 antagonists” (GlaxoSmithKline Intellectual Property (No. 2) Limited, priority 2011, dated 2015):
# pIC50: −log10 of the molar value.
# Molecular target: T1, human TRPV4 (Homo sapiens, UniProt Q9HBA0)
# T1 construct: expressed in transfected cells; host or cells: HEK-293-MSR-II cells transduced with 1% BacMam virus
# Test: Ligand-gated assay (Fluo4 calcium, FLIPR; inhibition of agonist-induced activation)
# Assay type: cell-based
# Settings: HEK-293-MSR-II cells transduced with BacMam human TRPV4; agonist at EC80
# Experimental: TRP channel activation/opening results in an influx of divalent and monovalent cations including calcium. The resulting changes in intracellular calcium were monitored using a calcium selective fluorescent dye Fluo4 (MDS Analytical Technologies). Dye loaded cells were initially exposed to test compound to verify a lack of agonist activity. Cells were subsequently activated by addition of an agonist and inhibition of the agonist-induced activation was recorded. Human embryonic kidney 293 cells stably expressing the macrophage scavenger receptor class II (HEK-293-MSR-II) and transduced with 1% BacMam (J. P. Condreay, S. M. Witherspoon, W. C. Clay and T. A. Kost, Proc Natl Acad Sci 96 (1999), pp. 127-132) virus expressing the human TRPV4 gene were plated at 15000 cells/well in a volume of 50 μL in a 384 well poly-D lysine coated plate. Cells were incubated for 24 hours at 37 degrees and 5% CO2. Media was then aspirated using a Tecan Plate-washer and replaced with 20 μL of dye loading buffer: HBSS, 500 uM Brilliant Black (MDS Analytical Technologies), 2 uM Fluo-4. Dye loaded plates were then incubated in the dark at room temperature for 1-1.5 hours. 10 μL of test compound diluted in HBSS (HBSS with 1.5 mM Calcium Chloride, 1.5 mM Magnesium Chloride and 10 mM HEPES. pH 7.4), +0.01% Chaps was added to the plate, incubated for 10 min at room temperature in the dark and then 10 μL of agonist was added at a final concentration equal to the agonist EC80. Calcium release was measured using the FLIPRtetra (MDS Analytical Technologies) or FLIPR384 (MDS Analytical Technologies).
# IC50 between 0.1-10 nM (+++), >10-50 nM (++), >50-500 nM (+).
# T1 sequence (Q9HBA0 whole entry): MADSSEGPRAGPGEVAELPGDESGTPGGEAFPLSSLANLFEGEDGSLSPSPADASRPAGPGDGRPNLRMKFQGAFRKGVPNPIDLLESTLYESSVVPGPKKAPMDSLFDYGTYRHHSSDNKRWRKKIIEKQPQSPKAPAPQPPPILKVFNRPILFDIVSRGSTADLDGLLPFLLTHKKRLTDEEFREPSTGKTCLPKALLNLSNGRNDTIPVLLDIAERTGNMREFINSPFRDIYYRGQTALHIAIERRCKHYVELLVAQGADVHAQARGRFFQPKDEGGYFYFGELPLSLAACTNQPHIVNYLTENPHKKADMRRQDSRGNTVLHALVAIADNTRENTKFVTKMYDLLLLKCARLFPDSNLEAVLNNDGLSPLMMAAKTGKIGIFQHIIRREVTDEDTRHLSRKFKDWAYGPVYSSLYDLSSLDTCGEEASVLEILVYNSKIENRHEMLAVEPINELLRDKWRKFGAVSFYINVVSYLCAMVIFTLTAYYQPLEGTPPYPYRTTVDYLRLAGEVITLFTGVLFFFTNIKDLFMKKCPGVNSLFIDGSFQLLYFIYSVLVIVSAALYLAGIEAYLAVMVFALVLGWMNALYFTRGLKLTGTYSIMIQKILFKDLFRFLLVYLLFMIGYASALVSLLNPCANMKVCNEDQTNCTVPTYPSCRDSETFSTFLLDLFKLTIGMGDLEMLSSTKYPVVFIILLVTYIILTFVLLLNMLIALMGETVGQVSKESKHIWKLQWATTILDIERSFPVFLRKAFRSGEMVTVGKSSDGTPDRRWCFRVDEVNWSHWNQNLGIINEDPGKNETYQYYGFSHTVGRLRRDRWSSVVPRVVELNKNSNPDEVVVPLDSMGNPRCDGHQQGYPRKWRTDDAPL
row,pIC50,Structure (SMILES)
1,8.00 to 10.00,"CC(C)(C)c1noc(N2C[C@@]3(CCC[C@H](Cn4cnc5ccc(C#N)cc54)C3)OC2=O)c1F [Example 47, 1-(((5S,7S)-3-(3-(tert-butyl)-4-fluoroisoxazol-5-yl)-2-oxo-1-oxa-3-azaspiro[4.5]decan-7-yl)methyl)-1H-benzo[d]imidazole-6-carbonitrile]"
2,8.00 to 10.00,"CC(C)(C)c1ccc(N2C[C@@]3(CCC[C@](C)(Cn4cnc5ccc(C#N)cc54)C3)OC2=O)nn1 [Example 48, 1-(((5S,7S)-3-(6-(tert-butyl)pyridazin-3-yl)-7-methyl-2-oxo-1-oxa-3-azaspiro[4.5]decan-7-yl)methyl)-1H-benzo[d]imidazole-6-carbonitrile]"
3,8.00 to 10.00,"CC(C)(C)c1cnc(N2C[C@@]3(CCC[C@](C)(Cn4cnc5ccc(C#N)cc54)C3)OC2=O)nc1 [Example 49, 1-(((5S,7S)-3-(5-(tert-butyl)pyrimidin-2-yl)-7-methyl-2-oxo-1-oxa-3-azaspiro[4.5]decan-7-yl)methyl)-1H-benzo[d]imidazole-6-carbonitrile]"
4,8.00 to 10.00,"CC(C)(C)n1ncc(N2C[C@@]3(CCC[C@](C)(Cn4cnc5ccc(C#N)cc54)C3)OC2=O)n1 [Example 50, 1-(((5S,7S)-3-(2-(tert-butyl)-2H-1,2,3-triazol-4-yl)-7-methyl-2-oxo-1-oxa-3-azaspiro[4.5]decan-7-yl)methyl)-1H-benzo[d]imidazole-6-carbonitrile]"
5,7.30 to 8.00,"Cn1ccc(-c2cc(N3C[C@@]4(CCC[C@](C)(Cn5cnc6ccc(C#N)cc65)C4)OC3=O)on2)n1 [Example 51, 1-(((5S,7S)-7-methyl-3-(3-(1-methyl-1H-pyrazol-3-yl)isoxazol-5-yl)-2-oxo-1-oxa-3-azaspiro[4.5]decan-7-yl)methyl)-1H-benzo[d]imidazole-6-carbonitrile]"
6,6.30 to 7.30,"CC(C)(C)n1cc(N2C[C@@]3(CCC[C@](C)(Cn4cnc5ccc(C#N)cc54)C3)OC2=O)nn1 [Example 52, 1-(((5S,7S)-3-(1-(tert-butyl)-1H-1,2,3-triazol-4-yl)-7-methyl-2-oxo-1-oxa-3-azaspiro[4.5]decan-7-yl)methyl)-1H-benzo[d]imidazole-6-carbonitrile]"
7,8.00 to 10.00,"CC(C)(C)c1cnc(N2C[C@@]3(CCC[C@](C)(Cn4cnc5ccc(C#N)cc54)C3)OC2=O)cn1 [Example 53, 1-(((5S,7S)-3-(5-(tert-butyl)pyrazin-2-yl)-7-methyl-2-oxo-1-oxa-3-azaspiro[4.5]decan-7-yl)methyl)-1H-benzo[d]imidazole-6-carbonitrile]"
8,6.30 to 7.30,"C[C@]1(Cn2cnc3ccc(C#N)cc32)CCC[C@@]2(CN(c3ncc(C(F)(F)F)cn3)C(=O)O2)C1 [Example 54, 1-(((5S,7S)-7-methyl-2-oxo-3-(5-(trifluoromethyl)pyrimidin-2-yl)-1-oxa-3-azaspiro[4.5]decan-7-yl)methyl)-1H-benzo[d]imidazole-6-carbonitrile]"
9,8.00 to 10.00,"COC(C)(C)c1ccc(N2C[C@@]3(CCC[C@](C)(Cn4cnc5ccc(C#N)cc54)C3)OC2=O)cn1 [Example 55, 1-(((5S,7S)-3-(6-(2-methoxypropan-2-yl)pyridin-3-yl)-7-methyl-2-oxo-1-oxa-3-azaspiro[4.5]decan-7-yl)methyl)-1H-benzo[d]imidazole-6-carbonitrile]"
10,7.30 to 8.00,"C=C(C)c1cc(N2C[C@@]3(CCC[C@](C)(Cn4cnc5ccc(C#N)cc54)C3)OC2=O)on1 [Example 56, 1-(((5S,7S)-7-methyl-2-oxo-3-(3-(prop-1-en-2-yl)isoxazol-5-yl)-1-oxa-3-azaspiro[4.5]decan-7-yl)methyl)-1H-benzo[d]imidazole-6-carbonitrile]"
11,8.00 to 10.00,"Cc1noc(N2C[C@@]3(CCC[C@](C)(Cn4cnc5ccc(C#N)cc54)C3)OC2=O)c1C [Example 57, 1-(((5S,7S)-3-(3,4-Dimethylisoxazol-5-yl)-7-methyl-2-oxo-1-oxa-3-azaspiro[4.5]decan-7-yl)methyl)-1H-benzo[d]imidazole-6-carbonitrile]"
12,6.30 to 7.30,"Cc1noc(N2C[C@@]3(CCC[C@H](Cn4cnc5ccc(C#N)cc54)C3)OC2=O)c1C [Example 58, 1-(((5S,7S)-3-(3,4-dimethylisoxazol-5-yl)-2-oxo-1-oxa-3-azaspiro[4.5]decan-7-yl)methyl)-1H-benzo[d]imidazole-6-carbonitrile]"
13,7.30 to 8.00,"N#Cc1ccc2ncn(C[C@H]3CCC[C@]4(C3)CN(Cc3csc(-c5ccccc5)n3)C(=O)O4)c2c1 [Example 63, 1-({(5S,7S)-2-oxo-3-[(2-phenyl-1,3-thiazol-4-yl)methyl]-1-oxa-3-azaspiro[4.5]dec-7-yl}methyl)-1H-benzimidazole-6-carbonitrile]"
14,8.00 to 10.00,"N#Cc1ccc2ncn(C[C@H]3CCC[C@]4(C3)CN(Cc3cccc(-c5ccccc5)n3)C(=O)O4)c2c1 [Example 64, 1-({(5S,7S)-2-oxo-3-[(6-phenyl-2-pyridinyl)methyl]-1-oxa-3-azaspiro[4.5]dec-7-yl}methyl)-1H-benzimidazole-6-carbonitrile]"
15,7.30 to 8.00,"CC(C)(CN1C[C@@]2(CCC[C@H](Cn3cnc4ccc(C#N)cc43)C2)OC1=O)c1nc(C2CCOCC2)no1 [Example 65, 1-[((5S,7S)-3-{2-methyl-2-[3-(tetrahydro-2H-pyran-4-yl)-1,2,4-oxadiazol-5-yl]propyl}-2-oxo-1-oxa-3-azaspiro[4.5]dec-7-yl)methyl]-1H-benzimidazole-6-carbonitrile]"
16,7.30 to 8.00,"N#Cc1ccc2ncn(C[C@H]3CCC[C@]4(C3)CN(Cc3nc(-c5ccccc5)cs3)C(=O)O4)c2c1 [Example 66, 1-({(5S,7S)-2-oxo-3-[(4-phenyl-1,3-thiazol-2-yl)methyl]-1-oxa-3-azaspiro[4.5]dec-7-yl}methyl)-1H-benzimidazole-6-carbonitrile]"
17,7.30 to 8.00,"N#Cc1ccc2ncn(C[C@H]3CCC[C@]4(C3)CN(Cc3cc(-c5ccc(Cl)cc5)no3)C(=O)O4)c2c1 [Example 67, 1-[((5S,7S)-3-{[3-(4-chlorophenyl)-5-isoxazolyl]methyl}-2-oxo-1-oxa-3-azaspiro[4.5]dec-7-yl)methyl]-1H-benzimidazole-6-carbonitrile]"
18,7.30 to 8.00,"N#Cc1ccc2ncn(C[C@H]3CCC[C@]4(C3)CN(Cc3cc(-c5ccccc5)no3)C(=O)O4)c2c1 [Example 68, 1-({(5S,7S)-2-oxo-3-[(3-phenyl-5-isoxazolyl)methyl]-1-oxa-3-azaspiro[4.5]dec-7-yl}methyl)-1H-benzimidazole-6-carbonitrile]"
19,6.30 to 7.30,"Cn1nc(CN2C[C@@]3(CCC[C@H](Cn4cnc5ccc(C#N)cc54)C3)OC2=O)cc1-c1ccccc1 [Example 69, 1-({(5S,7S)-3-[(1-methyl-5-phenyl-1H-pyrazol-3-yl)methyl]-2-oxo-1-oxa-3-azaspiro[4.5]dec-7-yl}methyl)-1H-benzimidazole-6-carbonitrile]"
20,8.00 to 10.00,"COc1ccc(-c2csc(CN3C[C@@]4(CCC[C@H](Cn5cnc6ccc(C#N)cc65)C4)OC3=O)n2)cc1C [Example 70, 1-{[(5S,7S)-3-({4-[3-methyl-4-(methyloxy)phenyl]-1,3-thiazol-2-yl}methyl)-2-oxo-1-oxa-3-azaspiro[4.5]dec-7-yl]methyl}-1H-benzimidazole-6-carbonitrile]"
21,6.30 to 7.30,"N#Cc1ccc2ncn(C[C@H]3CCC[C@]4(C3)CN(Cc3nnc(-c5ccccc5)[nH]3)C(=O)O4)c2c1 [Example 71, 1-({(5S,7S)-2-oxo-3-[(3-phenyl-1H-1,2,4-triazol-5-yl)methyl]-1-oxa-3-azaspiro[4.5]dec-7-yl}methyl)-1H-benzimidazole-6-carbonitrile]"
